According to PubChem BioAssay AID2060353 (Molecular Pharmacology Branch, DTP, NCI, 2025):

Tested on: 521955-158-R2-J5-PDC spheroids with stroma, growth inhibition
Test: Anticancer human tumor 521955-158-R2-J5-PDC patient-derived pancreatic carcinoma cell line growth inhibition [TAK]
Conditions: for viability, T/C: stronger effect = lower value
Procedure, shortened: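 Spheroids of 60% malignant cells, 25% HUVEC and 15% hMSC were exposed to targeted agents combined with TAK-243 or ipatasertib. Concentrations started at or near clinical Cmax (10 microM if unknown) and descended in half-log steps.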
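Also: spheroids exposed to drugs for seven days before readout.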
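For viability, T/C in this document: 100% = DMSO vehicle control viability.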

**Q.** How did the IC50 (curve of first compound, second compound 0.3 µM) turn out when `Cn1cnc2c(F)c(Nc3ccc(Br)cc3Cl)c(C(=O)NOCCO)cc21` + CC(C)NCC(C(=O)N1CCN(c2ncnc3c2C(C)CC3O)CC1)c1ccc(Cl)cc1 was run?
**A.** 25.7 nM

**Q.** And the IC50 (curve of first compound, second compound 0.949 µM)?
**A.** < 9.49 nM

**Q.** And the IC50 (curve of first compound, second compound 3 µM)?
**A.** < 9.49 nM

**Q.** And the IC50 (curve of first compound, second compound 9.49 µM)?
**A.** 20.2 nM

**Q.** And the IC50 (curve of first compound, second compound 30 µM)?
**A.** < 9.49 nM

**Q.** And the viability, T/C (second compound 0.3 µM, first compound 0.00949 µM)?
**A.** 64.4%

**Q.** And the viability, T/C (second compound 0.3 µM, first compound 0.03 µM)?
**A.** 42.6%

**Q.** And the viability, T/C (second compound 0.3 µM, first compound 0.0949 µM)?
**A.** 36.7%

**Q.** And the viability, T/C (second compound 0.3 µM, first compound 0.3 µM)?
**A.** 38.3%

**Q.** What about the viability, T/C (second compound 0.3 µM, first compound 0.949 µM) of the same compound?
**A.** 27.7%

**Q.** What about the viability, T/C (second compound 0.3 µM, first compound 3 µM) of the same compound?
**A.** 20.4%

**Q.** And the viability, T/C (second compound 0.949 µM, first compound 0.00949 µM)?
**A.** 48.9%

**Q.** What about the viability, T/C (second compound 0.949 µM, first compound 0.03 µM) of the same compound?
**A.** 38.9%

**Q.** And the viability, T/C (second compound 0.949 µM, first compound 0.0949 µM)?
**A.** 28.5%

**Q.** And the viability, T/C (second compound 0.949 µM, first compound 0.3 µM)?
**A.** 20.9%

**Q.** What about the viability, T/C (second compound 0.949 µM, first compound 0.949 µM) of the same compound?
**A.** 15.8%

**Q.** What about the viability, T/C (second compound 0.949 µM, first compound 3 µM) of the same compound?
**A.** 5.06%

**Q.** And the viability, T/C (second compound 3 µM, first compound 0.00949 µM)?
**A.** 44.8%

**Q.** And the viability, T/C (second compound 3 µM, first compound 0.03 µM)?
**A.** 38.5%

**Q.** And the viability, T/C (second compound 3 µM, first compound 0.0949 µM)?
**A.** 28.6%

**Q.** And the viability, T/C (second compound 3 µM, first compound 0.3 µM)?
**A.** 25%

**Q.** What about the viability, T/C (second compound 3 µM, first compound 0.949 µM) of the same compound?
**A.** 14.1%

**Q.** And the viability, T/C (second compound 3 µM, first compound 3 µM)?
**A.** 5.64%

**Q.** And the viability, T/C (second compound 9.49 µM, first compound 0.00949 µM)?
**A.** 61%

**Q.** What about the viability, T/C (second compound 9.49 µM, first compound 0.03 µM) of the same compound?
**A.** 45%

**Q.** And the viability, T/C (second compound 9.49 µM, first compound 0.0949 µM)?
**A.** 29%

**Q.** What about the viability, T/C (second compound 9.49 µM, first compound 0.3 µM) of the same compound?
**A.** 21.3%

**Q.** What about the viability, T/C (second compound 9.49 µM, first compound 0.949 µM) of the same compound?
**A.** 13.5%

**Q.** And the viability, T/C (second compound 9.49 µM, first compound 3 µM)?
**A.** 5.67%

**Q.** And the viability, T/C (second compound 30 µM, first compound 0.00949 µM)?
**A.** 40.2%

**Q.** And the viability, T/C (second compound 30 µM, first compound 0.03 µM)?
**A.** 21.9%

**Q.** And the viability, T/C (second compound 30 µM, first compound 0.0949 µM)?
**A.** 17.9%

**Q.** What about the viability, T/C (second compound 30 µM, first compound 0.3 µM) of the same compound?
**A.** 10%

**Q.** And the viability, T/C (second compound 30 µM, first compound 0.949 µM)?
**A.** 3.77%

**Q.** What about the viability, T/C (second compound 30 µM, first compound 3 µM) of the same compound?
**A.** 1.5%

**Q.** For `CC(C)NCC(C(=O)N1CCN(c2ncnc3c2C(C)CC3O)CC1)c1ccc(Cl)cc1` (stereo not given), which viability, T/C (compound 0.3 µM) is on record?
**A.** 101% [middle of 10 runs]

**Q.** What about the viability, T/C (compound 0.949 µM) of the same compound?
**A.** 81.5% [middle of 10 runs]

**Q.** And the viability, T/C (compound 3 µM)?
**A.** 82.7% [middle of 10 runs]

**Q.** And the viability, T/C (compound 30 µM)?
**A.** 56.5% [middle of 10 runs]

**Q.** What about the IC50 (compound alone, run of 02/20/2020) of the same compound?
**A.** > 30000 nM
